Measurements as given in patent US20140242093A1, “METHODS AND COMPOSITIONS FOR MODULATING THE INNATE IMMUNE RESPONSE AND/OR MYOGENESIS IN A MAMMALIAN SUBJECT” (FRED HUTCHINSON CANCER RESEARCH CENTER, priority 2011, published 2014).

Tested on: control human primary myoblasts
Experiment: Expression microarray of primary myoblasts transduced with lentivirus carrying DUX4-fl, DUX4-s or GFP
Protocol: Primary human myoblasts were collected and cultured as previously described (Snider et al., 2010). Primary myoblasts were maintained at or below 70% confluency for proliferation. For differentiation, cells were allowed to reach 95-100% confluency in growth medium. Once confluency was reached, the cells were changed to differentiation medium (F10 media supplemented with 1% horse serum, 10 μg/mL insulin, and 10 μg/mL transferrin, penicillin/streptomycin) and maintained for 4 days. Human RD cells were grown in DMEM in 10% bovine calf serum (Hyclone) and penicillin/streptomycin. The primary myoblasts were transduced with lentivirus carrying DUX-fl, DUX4- or GFP (MOI=15).
Expression microarrays were performed on the transduced cells at 24 hours after transduction as follows. […] Samples were analyzed by Illumina Human Whole Genome microarrays. Probe intensities were corrected, normalized, and summarized by the Lumi package of Bioconductor (Du et al., 2008). Differentially expressed genes were identified by the LIMMA package of Bioconductor (Wettenhall and Smyth, 2004). Gene set enrichment analysis (GSEA) was performed using the Bioconductor GOstats package (Falcon and Gentleman, 2007).

## DUX4-fl: full-length DUX4 protein (SEQ ID NO:110), expressed from lentiviral or pCS2 vectors or in vitro translated
Refseq NM_006288.2
  THY1 fc: −1.067
Refseq NM_006290.2, cultured human skeletal muscle
  TNFAIP3 expression fc: −2.897
Refseq NM_006308.1
  HSPB3 expression fc: 1.914
Refseq NM_006362.4
  NXF1 expression fc: 4.233
Refseq NM_006395.1
  fc of ATG7 (expression array): −1.016
Refseq NM_006424.2
  SLC34A2 expression fc: 5.514
Refseq NM_006440.3
  TXNRD2 fc: −1.104
Refseq NM_006454.2
  fc of MXD4 (expression array): −1.035
Refseq NM_006465.2
  ARID3B expression fc: 2.024
Refseq NM_006472.2, cultured human skeletal muscle
  TXNIP expression fc: −1.9
Refseq NM_006526.2
  ZNF217 expression fc: 4.114
Refseq NM_006589.2
  FAM189B fc: −1.075
Refseq NM_006602.2
  fc of TCFL5 (expression array): −1.053
Refseq NM_006605.1
  RFPL2 expression fc: 7.293
Refseq NM_006617.1
  fc of NES (expression array): −0.08904
Refseq NM_006644.2
  HSPH1 expression fc: 2.217
Refseq NM_006674.2
  HCP5 fc: −1.099
Refseq NM_006759.3
  UGP2 fc: −1.169
Refseq NM_006820.1, cultured human skeletal muscle
  IFI44L expression fc: −5.117
Refseq NM_006825.2
  fc of CKAP4 (expression array): −1.006
Refseq NM_006844.3
  fc of ILVBL (expression array): −1.015
Refseq NM_006855.2
  KDELR3 fc: −1.163
Refseq NM_006877.2
  fc of GMPR (expression array): −0.4519
Refseq NM_006931.1
  SLC2A3 expression fc: 3.385
Refseq NM_006948.4
  fc of HSPA13 (expression array): −0.1756
Refseq NM_006977.2
  ZBTB25 fc: −1.113
Refseq NM_006988.3
  ADAMTS1 fc: −1.164
Refseq NM_007021.2, cultured human skeletal muscle
  C1Oorf10 expression fc: −2.641
Refseq NM_007034.3
  fc of DNAJB4 (expression array): −1.024
Refseq NM_007044.2
  KATNA1 expression fc: 1.819
Refseq NM_007106.2
  UBL3 expression fc: 2.164
Refseq NM_007170.2
  TESK2 expression fc: 1.787
Refseq NM_007172.3
  NUP50 expression fc: 2.324
Refseq NM_007229.1
  fc of PACSIN2 (expression array): −1.038
Refseq NM_007240.1
  DUSP12 expression fc: 2.249
Refseq NM_007283.5
  fc of MGLL (expression array): −1.033
Refseq NM_007315.2, cultured human skeletal muscle
  STAT1 expression fc: −2.915
Refseq NM_009587.2
  fc of LGALS9 (expression array): −0.8549
Refseq NM_012083.2
  FRAT2 expression fc: 1.918
Refseq NM_012121.4
  fc of CDC42EP4 (expression array): −1.034
Refseq NM_012124.1
  CHORDC1 expression fc: 1.805
Refseq NM_012130.2
  CLDN14 expression fc: 3.148
Refseq NM_012143.2
  TFIP11 expression fc: 3.191
Refseq NM_012238.3
  SIRT1 expression fc: 1.844
Refseq NM_012285.1
  KCNH4 expression fc: 2.749
Refseq NM_012342.2
  BAMBI expression fc: 2.783
Refseq NM_012461.1
  fc of TINF2 (expression array): −1.025
Refseq NM_013230.2
  CD24 expression fc: 2.624
Refseq NM_013249.1
  ZNF214 expression fc: 2.219
Refseq NM_013254.2
  TBK1 fc: −1.08
Refseq NM_013262.3
  MYLIP expression fc: 1.824
Refseq NM_013293.3
  TRA2A expression fc: 1.978
Refseq NM_013302.3
  fc of EEF2K (expression array): −1.058
Refseq NM_013376.3
  SERTAD1 expression fc: 2.002
Refseq NM_013386.3
  fc of SLC25A24 (expression array): −0.2843
Refseq NM_013943.1
  fc of CLIC4 (expression array): −0.9976
Refseq NM_014038.1
  BZW2 expression fc: 2.677
Refseq NM_014045.3
  LRP10 fc: −1.102
Refseq NM_014138.3
  fc of FAM156A (expression array): −1.027
Refseq NM_014140.2
  SMARCAL1 fc: −1.157
Refseq NM_014167.2
  CCDC59 expression fc: 1.892
Refseq NM_014290.1
  fc of TDRD7 (expression array): −1.062
Refseq NM_014314.3, cultured human skeletal muscle
  DDX58 expression fc: −2.466
Refseq NM_014317.3
  PDSS1 expression fc: 2.003
Refseq NM_014324.4
  AMACR expression fc: 2.743
Refseq NM_014330.2
  PPP1R15A expression fc: 2.08
Refseq NM_014399.3
  TSPAN13 expression fc: 2.117
Refseq NM_014508.2
  APOBEC3C fc: −1.108
Refseq NM_014556.2, cultured human skeletal muscle
  EVC expression fc: −1.954
Refseq NM_014575.2, cultured human skeletal muscle
  SCHIP1 expression fc: −2.093
Refseq NM_014585.3
  SLC40A1 expression fc: 1.859
Refseq NM_014603.1
  CDR2L fc: −1.119
Refseq NM_014604.2
  TAX1BP3 fc: −1.072
Refseq NM_014633.3
  CTR9 expression fc: 2.402
Refseq NM_014655.1
  SLC25A44 expression fc: 2.017
Refseq NM_014751.4
  MTSS1 fc: −1.159
Refseq NM_014831.1
  LBA1 fc: −1.121
Refseq NM_014878.4
  KIAA0020 expression fc: 2.017
Refseq NM_014945.2
  ABLIM3 fc: −1.174
Refseq NM_014969.4
  WDR47 expression fc: 2.277
Refseq NM_015193.3
  ARC expression fc: 1.802
